Measured values taken from patent EP0183174A2, “Substituted phenoxy urea, processes for its preparation and herbicide containing it as active ingredient” (KUMIAI CHEMICAL INDUSTRY CO., LTD., priority 1984, dated 1986).

Legend:
Design in all cases: key: 5: Withered; 4.5: Herbicidal effect (or phytotoxicity) in a range of 90 to 99%; 4: Herbicidal effect (or phytotoxicity) in a range of 80 to 89%; 3.5: Herbicidal effect (or phytotoxicity) in a range of 70 to 79%; 3: Herbicidal effect (or phytotoxicity) in a range of 60 to 69%; 2.5: Herbicidal effect (or phytotoxicity) in a range of 50 to 59%; 2: Herbicidal effect (or phytotoxicity) in a range of 40 to 49%; 1.5: Herbicidal effect (or phytotoxicity) in a range of 30 to 39%; 1: Herbicidal effect (or phytotoxicity) in a range of 20 to 29%; 0.5: Herbicidal effect (or phytotoxicity) in a range of 1 to 19%; 0: No herbicidal effect (or no phytotoxicity)
Details in all cases: evaluated twenty days after application
green foxtail = experiment: Test Example 3: herbicidal test by upland soil treatment; format: in vivo, Setaria viridis L.
From the text: (§1) Into each plastic pot of 600 cm^2, upland soil was filled, then seeds of barnyardgrass, crabgrass, green foxtail, redroot pigweed, rice flatsedge, rice, wheat, maize, soybean, cotton and sugar beet were sown, and they were covered with soil. A predetermined amount of the wettable powder prepared from the test compound in accordance with Formulation Example 3 and diluted with water, was uniformly applied to the surface of the soil at an application rate of 1000 liter/hectare by means of a small size spray. They were grown in a greenhouse, and twenty days after the application, the herbicidal effects and phytotoxicity were evaluated in accordance with the standards as identified in Table 5.

soybean = experiment: Test Example 3: herbicidal test by upland soil treatment (phytotoxicity); format: in vivo
From the text: as §1

wheat = experiment: as above; format: in vivo
From the text: as §1

## CN(C)C(=O)NOc1cc(Cl)ccc1Cl [Compound No. 1, 3-(2,5-Dichlorophenoxy)-1,1-dimethyl urea]
Green foxtail; Dose 1 kg/HA
  Herbicidal effects Green foxtail: 5
Green foxtail; Dose 4 kg/HA
  Herbicidal effects Green foxtail: 5
soybean; Dose 1 kg/HA
  Phytotoxicity Soybean: 0
soybean; Dose 4 kg/HA
  Phytotoxicity Soybean: 0
wheat; Dose 1 kg/HA
  Phytotoxicity Wheat: 0
wheat; Dose 4 kg/HA
  Phytotoxicity Wheat: 0
